# Test results published in patent US6387950B2, “Treatment of tumors with RARα selective retinoid compounds in combination with other anti-tumor agents” (Allergan Sales, Inc., priority 2000, dated 2002).
# What was measured:
# RARγ receptors = biological target: T1, RARγ receptors (Homo sapiens, UniProt P13631); experiment: chimeric receptor transactivation assay, RARγ; assay type: cell-based; details: agonist activity
# T1 sequence (P13631 185-419 limits assumed): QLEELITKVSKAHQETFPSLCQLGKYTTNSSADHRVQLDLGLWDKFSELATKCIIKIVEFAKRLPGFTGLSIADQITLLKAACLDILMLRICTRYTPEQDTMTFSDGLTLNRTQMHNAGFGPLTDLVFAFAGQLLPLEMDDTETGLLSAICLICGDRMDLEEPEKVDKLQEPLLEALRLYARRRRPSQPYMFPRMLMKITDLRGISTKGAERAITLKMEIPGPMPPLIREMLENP
# Text: (§1) For example, a chimeric receptor transactivation assay which tests for agonist-like activity in the RARα, RARβ, RARγ, RXRα receptor subtypes, and which is based on work published by Feigner P. L. and Holm M. (1989) Focus, 112 is described in detail in U.S. Pat. No. 5,455,265. The specification of U.S. Pat. No. 5,455,265 is hereby expressly incorporated by reference.
# (§2) The results obtained in this assay are expressed in EC50 numbers, as they are also in the chimeric receptor transactivation assay.
# SKBR-3 cells = experiment: cell proliferation assay (BrdU incorporation), SKBR-3; assay type: cell-based, human
# Method: (§3) The SKBR-3 and T47-D cell cultures in which the assay procedures were performed are also well known and are available from sources well known in the art. Specifically, as is known, T-47D is an estrogen receptor positive (ER^+) human breast cancer cell line, and SK-BR-3 is an estrogen receptor negative (ER^−) human breast cancer cell line. The assay procedure which itself is well known in the art, involves determining incorporation of 5-bromo-2′-deoxyuridine (BrdU) into the cells. As is known, incorporation of less BrdU represents less cell proliferation (inhibition of cell proliferation), and this assay is accepted in the art as a measure of anti-proliferative or anti-tumor activity of the assayed agent or agents.
# (§4) The estrogen receptor-positive (ER^+) cell line T-47D and the ER^−-cell line SK-BR-3 were cultured in Dulbecco's modification of Eagle's medium (DMEM Gibco BRL, Gaithersburg, Md.) supplemented with 10% fetal bovine serum (HyClone, Logan, Utah), 2 mM L-glutamine and 1% antibiotics-antimycotics (Gibco BRL). Cell lines were obtained from the American Type Culture Collection (ATCC, Rockville, Md., HTB-133 and HTB-30 for T47-D and SKBR-3, respectively). Cells were cultured at 37° C. in a humidified atmosphere containing 5% CO2.
# (§5) Proliferation of cancer cell lines was determined using a commercial cell proliferation kit (Roche Diagnostics), essentially following the instructions of the manufacturer. Cells were seeded into 96-well tissue culture plates (Corning Incorporated, Corning, N.Y.) at a concentration of 3000 cells/well. After 24 hours, cells were treated with Compound 2 (AGN195183) and/or interferons (IFNs) or solvent alone. The appropriate concentrations of Compound 2 (AGN195183) used in this study were between 10^−11M and 10^−6M; IFNs concentrations were between 25 and 1000 Unit/ml. Culture media were changed every 72 hours. After 7days, 10 μl of 5-bromo-2′-deoxyuridine (BrdU) was added to each well. Incubation with BrdU was stopped 24 hours later by adding 100 μl of anti-BrdU antibody to each well. The amount of BrdU incorporated into the DNA of proliferating cells was assessed by measuring absorbance at 450 nm. Each experiment was performed in triplicate.
# (§6) The growth inhibition observed in the cell cultures as a result of treatment with a combination of Compound 2 (AGN195183) of the invention and the interferons (IFNs) was analyzed for synergistic and additive effects.
# (§7) Synergism was defined as: %A×% B>%AB
# (§8) Additivity was defined as: %A×%B=%AB
# (§9) where A and B are the effects of each individual agent and AB is the effect of the combination, in accordance with the teaching of Aapro et al., Cancer Chemother. Pharmacol., 10: 161 -166, 1983, and Marth et al., J. Natl. Cancer Inst., 77:1197-1202, 1986), both of which are expressly incorporated herein by reference.
# (§10) Referring now to the graphs of FIGS. 1 through 12, each of these represents the results obtained in the above described assays where SKBR-3 and T47-D cells, respectively, were treated with a combination of Compound 2 of the invention and human recombinant interferon (IFN) α, β, and γ, respectively. The graph of FIG. 13 illustrates the results of treatment of these two cell cultures only with Compound 2 of the invention, without the use of any other anti-tumor agent. In each of these graphs the incorporation of 5-bromo-2′-deoxyuridine (BrdU) is plotted on the Y (vertical) axis and varying concentration of Compound 2 of the invention or varying concentration of IFNα. IFNβ or of IFNγ, respectively is plotted on the X (horizontal) axis. The concentration of the interferons is expressed in international units, as is accepted in the art, whereas the molar concentration of Compound 2 is plotted on a logarithmic scale. […]
# T47-D cells = experiment: cell proliferation assay (BrdU incorporation), T47-D; assay type: cell-based, human
# Method: as §3, §4, §5, §6, §7, §8, §9, §10
# RARα receptors = biological target: T2, RARα receptors (Homo sapiens, UniProt P10276); experiment: chimeric receptor transactivation assay, RARα; assay type: cell-based
# T2 sequence (P10276 183-417 limits assumed): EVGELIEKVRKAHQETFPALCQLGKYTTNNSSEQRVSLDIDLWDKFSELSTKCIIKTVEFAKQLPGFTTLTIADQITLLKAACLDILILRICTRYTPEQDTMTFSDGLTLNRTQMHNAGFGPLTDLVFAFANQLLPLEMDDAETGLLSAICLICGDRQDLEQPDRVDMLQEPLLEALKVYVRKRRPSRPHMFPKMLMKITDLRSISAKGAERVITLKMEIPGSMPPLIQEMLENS
# Text: as §1, §2
smiles,measurement,setting,value
"CC1(C)CCC(C)(C)c2c1cc(C(=O)Nc1cc(F)c(C(=O)O)c(F)c1)c(O)c2Cl [Compound 2, 2,6-Difluoro-4-[(3-hydroxy-4-chloro-5,5,8 8-tetramethyl-5,6,7,8-tetrahydronaphthalene-2-carbonyl) -amino]-benzoic acid]",EC50,RARγ receptors,> 10000 nM
same,anti-proliferative effect of the combination (BrdU incorporation),"SKBR-3 cells; Compound 2 10 nM, IFNα varied, FIG. 1",synergistic effect
same,anti-proliferative effect of the combination (BrdU incorporation),"SKBR-3 cells; Compound 2 10 nM, IFNα varied, FIG. 1, listed as AGN 195183",synergism
same,anti-proliferative effect of the combination (BrdU incorporation),"SKBR-3 cells; Compound 2 10 nM, IFNβ varied, FIG. 2",significant synergistic effect
same,anti-proliferative effect of the combination (BrdU incorporation),"SKBR-3 cells; Compound 2 10 nM, IFNβ varied, FIG. 2, listed as AGN 195183",synergism
same,anti-proliferative effect of the combination (BrdU incorporation),"SKBR-3 cells; Compound 2 10 nM, IFNγ varied, FIG. 3",significant synergistic effect
same,anti-proliferative effect of the combination (BrdU incorporation),"SKBR-3 cells; Compound 2 10 nM, IFNγ varied, FIG. 3, listed as AGN 195183",synergism
same,anti-proliferative effect of the combination (BrdU incorporation),"SKBR-3 cells; IFNα 100 U/ml, Compound 2 varied, FIG. 4",significant synergistic effect
same,anti-proliferative effect of the combination (BrdU incorporation),"SKBR-3 cells; IFNα 100 U/ml, Compound 2 varied, FIG. 4, listed as AGN 195183",synergism
same,anti-proliferative effect of the combination (BrdU incorporation),"SKBR-3 cells; IFNβ 100 U/ml, Compound 2 varied, FIG. 5",significant synergistic effect
same,anti-proliferative effect of the combination (BrdU incorporation),"SKBR-3 cells; IFNβ 100 U/ml, Compound 2 varied, FIG. 5, listed as AGN 195183",synergism
same,anti-proliferative effect of the combination (BrdU incorporation),"SKBR-3 cells; IFNγ 100 U/ml, Compound 2 varied, FIG. 6",significant synergistic effect
same,anti-proliferative effect of the combination (BrdU incorporation),"SKBR-3 cells; IFNγ 100 U/ml, Compound 2 varied, FIG. 6, listed as AGN 195183",synergism
same,anti-proliferative effect of the combination (BrdU incorporation),"T47-D cells; Compound 2 100 nM, IFNα varied, FIG. 7",additive
same,anti-proliferative effect of the combination (BrdU incorporation),"T47-D cells; Compound 2 100 nM, IFNβ varied, FIG. 8",significantly synergistic
same,anti-proliferative effect of the combination (BrdU incorporation),"T47-D cells; Compound 2 100 nM, IFNβ varied, FIG. 8, listed as AGN 195183",synergism
same,anti-proliferative effect of the combination (BrdU incorporation),"T47-D cells; Compound 2 100 nM, IFNγ varied, FIG. 9",significantly synergistic
same,anti-proliferative effect of the combination (BrdU incorporation),"T47-D cells; Compound 2 100 nM, IFNγ varied, FIG. 9, listed as AGN 195183",synergism
same,anti-proliferative effect of the combination (BrdU incorporation),"T47-D cells; IFNα 100 U/ml, Compound 2 varied, FIG. 10",not very effective and merely additive
same,anti-proliferative effect of the combination (BrdU incorporation),"T47-D cells; IFNβ 100 U/ml, Compound 2 varied, FIG. 11",synergistic inhibition
same,anti-proliferative effect of the combination (BrdU incorporation),"T47-D cells; IFNβ 100 U/ml, Compound 2 varied, FIG. 11, listed as AGN 195183",synergism
same,anti-proliferative effect of the combination (BrdU incorporation),"T47-D cells; IFNγ 100 U/ml, Compound 2 varied, FIG. 12","synergistic inhibition was observed, in the cotreatment with IFNγ only at higher concentrations of Compound 2"
same,anti-proliferative effect of the combination (BrdU incorporation),"T47-D cells; IFNγ 100 U/ml, Compound 2 varied, FIG. 12, listed as AGN 195183",synergism
same,EC50,RARα receptors,180 nM
same,efficiency,RARα receptors,75%
